# Assays:
# [1] = test system: neoepinephrine model of infarction (focal necrosis) of myocardium in rats; experiment: survival of rats with the neoepinephrine model of infarction; assay type: in vivo, rats of the Wistar line; settings: 25 mg/kg subcutaneously, 7 days
# Description: The study of the effect produced by the preparation according to the present invention on survival of animals with a neoepinephrine model of infarction was effected in comparison with the prior art preparations--obzidan and finoptin.
# The formation of a neoepinephrine model of infarction (focal necrosis) of myocardium in rats was effected by way of an every-day subcutaneous administration of a 0.1% solution of neoepinephrine in the dose of 3 mg/kg for 7 days to rats of the Wistar line with a mass of 160-200 g. The test preparations were subcutaneously administered to the rats in the form of a 1.25% aqueous solution in the dose of 25 mg/kg 0.5 hour after injection of neoepinephrine also for 7 days.
# [2] = test system: hemodynamic effects of acetylcholine, neoepinephrine, noradrenaline, histamine and angiotensin; experiment: influence on hemodynamic effects of acetylcholine, noradrenaline, neoepinephrine, angiotensin and histamine in narcotized cats; assay type: in vivo
# Description: (§1) The effect of the pharmaceutical preparation according to the present invention on the arterial pressure and vegetative responses was studied in acute experiments on cats with a mass of 2.8-4.0 kg narcotized with α-glucochloralose (90 mg/kg) and urethane (100 mg/kg, intraperitoneally). The breathing, arterial pressure in the common carotid artery and electrocardiogram of the second standard lead were recorded.
# (§2) The influence of the preparation according to the present invention on hemodynamic effects of acetylcholine (0.1 μg/kg) neoepinephrine (0.2 μg/kg), noradrenaline (1 μg/kg), histamine (1.5 μg/kg) and angiotensin (0.1 μg/kg) was also studied. The preparation of this invention was intravenously administered in the form of a 2.5% solution in doses of 0.5 to 10 mg/kg. The peripheral part of the vagus nerve was irritated by supromaximum pulses with the frequency of 30 Hz and duration of 0.1 ms.
# [3] = test system: arterial pressure of rats with spontaneous hypertension; experiment: hypotensive effect, intraperitoneal, spontaneously hypertensive rats; assay type: in vivo
# Description: The study of the hypotensive effect was carried out in experiments on spontaneously hypertensive male rats of the Akamoto-Aoki line aged 20-25 weeks. The prior art preparation-nifedipine was used for the purpose of comparison. The measurement of the arterial pressure was effected on the tail vein of the rats by the indirect method. The animals were divided into groups (10 in each) and trained for two weeks with the view to ensure their adaptation to the unit for the measurement of the arterial pressure. The level of the arterial pressure prior to administration of the test preparations was measured three times: two days, one day and directly prior to administration of the test preparations. The preparation was administered in the form of a 2.5% aqueous solution, nifedipine--in the form of a 2.5% suspension in Twin-80 intraperitoneally. […]
# [4] = test system: arterial pressure and vegetative responses in narcotized animals; experiment: arterial pressure, breathing and electrocardiogram in narcotized cats, intravenous; assay type: in vivo
# Description: as §1, §2
# white mongrel mice = experiment: in vivo; settings: mouse, ip
# Description: (§3) Acute toxicity measurements were carried out in experiments on white mongrel mice upon intraperitoneal administration.
# in vivo = settings: mouse, ip
# Description: as §3
# [5] = side effects or contraindications on administration
# [6] = test system: arterial pressure of spontaneously hypertensive rats; experiment: effect of the oral form on arterial pressure, spontaneously hypertensive rats; assay type: in vivo
# [7] = 25 mg/kg intraperitoneally, 30 minutes
# [8] = 25 mg/kg intraperitoneally, 1 hour
# [9] = 25 mg/kg intraperitoneally, 2 hours
# [10] = 25 mg/kg intraperitoneally, 4 hours
# [11] = 50 mg/kg intraperitoneal, 30 minutes
# [12] = 50 mg/kg intraperitoneally, 30 minutes
# [13] = 50 mg/kg intraperitoneally, 1 hour
# [14] = 50 mg/kg intraperitoneally, 2 hours
# [15] = 50 mg/kg intraperitoneally, 4 hours
# [16] = 50 mg/kg intraperitoneally, 24 hours
# [17] = 24 hours after a single-time administration
smiles,measurement,setting,value
"C[N+]1(C)CC(CC(=O)[O-])C(=O)N1 (stereo not shown) [Preparation of this invention, (1,1-dimethyl-3-oxopyrazolin-1-io-4-yl)acetate]",Percentage of survival,[1]; after 19 days,92%
same,Number of survived animals after 19 days,[1]; groups initially 12 animals,11
same,"Hemodynamic effect, Neoepinephrine","[2]; 10 mg/kg intravenously, neoepinephrine 0.2 μg/kg",-35%
same,"Hemodynamic effect, Noradrenaline","[2]; 0.5-3.0 mg/kg intravenously, noradrenaline 1 μg/kg",-10%
same,blocking of α- and β-receptors and the cholinergic system,[2]; higher doses (10 mg/kg),"substantially blocks both α- and β-receptors, as well as the cholinergic system"
same,direct influence on effects of angiotensin and histamine,[2]; higher doses (10 mg/kg),does not provide any direct influence on effects of angiotensin and histamine
same,"Variation of arterial pressure, diastolic",[3]; [7],-1 % of the initial
same,"Variation of arterial pressure, systolic",[3]; [7],-3 % of the initial
same,"Variation of arterial pressure, diastolic",[3]; [8],-7 % of the initial
same,"Variation of arterial pressure, systolic",[3]; [8],-5 % of the initial
same,"Variation of arterial pressure, diastolic",[3]; [9],-19 % of the initial
same,"Variation of arterial pressure, systolic",[3]; [9],-3 % of the initial
same,"Variation of arterial pressure, diastolic",[3]; [10],-18 % of the initial
same,"Variation of arterial pressure, systolic",[3]; [10],-7 % of the initial
same,reduction of diastolic pressure,[3]; [11],23.5%
same,reduction of systolic pressure,[3]; [11],17.6%
same,"Variation of arterial pressure, diastolic",[3]; [12],-23 % of the initial
same,"Variation of arterial pressure, systolic",[3]; [12],-17 % of the initial
same,"Variation of arterial pressure, diastolic",[3]; [13],-28 % of the initial
same,"Variation of arterial pressure, systolic",[3]; [13],-12 % of the initial
same,"Variation of arterial pressure, diastolic",[3]; [14],-26 % of the initial
same,"Variation of arterial pressure, systolic",[3]; [14],-18 % of the initial
same,"Variation of arterial pressure, diastolic",[3]; [15],-41 % of the initial
same,"Variation of arterial pressure, systolic",[3]; [15],-21 % of the initial
same,"Variation of arterial pressure, diastolic",[3]; [16],-19 % of the initial
same,"Variation of arterial pressure, systolic",[3]; [16],-17 % of the initial
same,reduction of diastolic pressure,[3]; [17],28.5%
same,reduction of systolic pressure,[3]; [17],18.8%
same,difference between systolic and diastolic pressures,[3]; see Table 1,increases the difference between systolic and diastolic pressures
same,Variation of arterial pressure,[4]; 5 mg/kg intravenously,-16%
same,peripheral resistance,[4]; in vivo,reduction of peripheral resistance
same,effect on breathing and electrocardiogram,"[4]; intravenously, 0.5 to 10 mg/kg",does not substantially affect the breathing and electrocardiogram of the animals
same,LD50,white mongrel mice,"2,239 (1,279-3,917) mg/kg"
same,LD50,in vivo,2240 mg/kg
same,side effects or contraindications,[5],No side effects or contraindications
same,"Variation of arterial pressure, diastolic","[6]; 50 mg/kg per os, 30 minutes",-10 % of the initial
same,"Variation of arterial pressure, systolic","[6]; 50 mg/kg per os, 30 minutes",-3 % of the initial
same,"Variation of arterial pressure, diastolic","[6]; 50 mg/kg per os, 1 hour",+2 % of the initial
same,"Variation of arterial pressure, diastolic","[6]; 50 mg/kg per os, 2 hours",-8 % of the initial
same,"Variation of arterial pressure, systolic","[6]; 50 mg/kg per os, 2 hours",-5 % of the initial
same,"Variation of arterial pressure, diastolic","[6]; 50 mg/kg per os, 4 hours",-3 % of the initial
same,"Variation of arterial pressure, diastolic","[6]; 50 mg/kg per os, 24 hours",-2 % of the initial
same,"Variation of arterial pressure, systolic","[6]; 50 mg/kg per os, 24 hours",-7 % of the initial
same,"Variation of arterial pressure, diastolic","[6]; 75 mg/kg per os, 30 minutes",-12 % of the initial
same,"Variation of arterial pressure, systolic","[6]; 75 mg/kg per os, 30 minutes",-16 % of the initial
same,"Variation of arterial pressure, systolic","[6]; 75 mg/kg per os, 2 hours",-18 % of the initial
same,"Variation of arterial pressure, diastolic","[6]; 75 mg/kg per os, 4 hours",-11 % of the initial
same,"Variation of arterial pressure, systolic","[6]; 75 mg/kg per os, 4 hours",-8 % of the initial
same,"Variation of arterial pressure, diastolic","[6]; 75 mg/kg per os, 24 hours",-22 % of the initial
same,"Variation of arterial pressure, systolic","[6]; 75 mg/kg per os, 24 hours",-20 % of the initial
same,stable reduction of the arterial pressure,"[6]; 75 mg/kg per os, 24 hours after administration",about 20%
same,"Variation of arterial pressure, diastolic","[6]; 100 mg/kg per os, 30 minutes",-11 % of the initial
same,"Variation of arterial pressure, systolic","[6]; 100 mg/kg per os, 30 minutes",-13 % of the initial
same,"Variation of arterial pressure, diastolic","[6]; 100 mg/kg per os, 2 hours",-7 % of the initial
same,"Variation of arterial pressure, systolic","[6]; 100 mg/kg per os, 2 hours",-8 % of the initial
same,"Variation of arterial pressure, diastolic","[6]; 100 mg/kg per os, 4 hours",-13 % of the initial
same,"Variation of arterial pressure, systolic","[6]; 100 mg/kg per os, 4 hours",-13 % of the initial
same,"Variation of arterial pressure, systolic","[6]; 100 mg/kg per os, 24 hours",-12 % of the initial

# Source: patent US4568689A, “Pharmaceutical preparation for the treatment of hypertensive disease and myocardial infarction” (priority 1983, dated 1986)
